# Measured values from patent publication US5565486A, “Sesquiterpenes, their preparation and their use as inhibitors acting on the gaba-benzodiazepine receptor” (Xenova Limited, priority 1992, dated 1996).
# How the values were obtained:
# [1] = Solubility in organic solvents; assay type: physicochemical; settings: solvents in which soluble
# benzodiazepine receptor = test: Benzodiazepine-receptor binding assay ([3H]-flunitrazepam displacement, ox cerebral cortex synaptosomal preparation); settings: for IC50: [3H]-flunitrazepam 1 nM, pH 7.4
# Protocol: The present compounds have shown activity in a benzodiazepine-receptor binding assay which uses a tritiated ligand specific for the receptor present on the purified GABA-Bz-Cl^- ionophore receptor complex. The details of the assay are set out in Example 5 which follows.
# The receptor extract was a crude synaptosomal preparation isolated from ox cerebral cortex by the method of Lang et al (FEBS Lett., 104 149-153, 1979). Receptor binding was determined using a modification described by O'Beirne and Williams (Eur. J. Biochem, 175 413-421, 1988) of the method of Braestrup and Squires (PNAS 74 3805-3809, 1977). The receptor preparation was incubated in 50 mM Tris/Cl, pH 7.4, with compound A and [^3 H]-flunitrazepam (agonist) at a final concentration of 1 nM. Bound radioligand was harvested on to glass fibre filters and measured by liquid scintillation counting. Non-specific binding was determined by displacement of ligand with Diazepam (1 μM).
# Binding data were fitted to one or two site models by weighted non-linear regression analysis using the computer programs `LIGAND` (Munson and Rodbard: Analytic Biochem 107 220-239, 1980) and `EBDA` (McPherson-Computer Prog. in Biomed. 7 107-114, 1983).
# The method described above was repeated using each of compounds B and C described in Examples 3 and 4 respectively, and also using compound D, which is the sodium salt of compound A.
# IC50 values were also determined for compounds A', E and F described in Examples 5 to 7 respectively.
structure (smiles),measurement,setting,value
C/C1=C\CC(C)(C)/C=C/C[C@@]2(C)OC3=C(O)C(=O)[C@H]4CO[C@H]([C@@H]34)[C@@H]2CC1 [Compound A],Solubility,[1],"Methanol, acetone, ethyl acetate"
same,IC50,benzodiazepine receptor,0.04 µM
same,% Inhibition,benzodiazepine receptor; concentration 3 nM,11%
same,% Inhibition,benzodiazepine receptor; concentration 9 nM,35%
same,% Inhibition,benzodiazepine receptor; concentration 28 nM,44%
same,% Inhibition,benzodiazepine receptor; concentration 93 nM,65%
same,% Inhibition,benzodiazepine receptor; concentration 280 nM,80%
same,% Inhibition,benzodiazepine receptor; concentration 930 nM,92%
same,% Inhibition,benzodiazepine receptor; concentration 3 μM,93%
same,% Inhibition,benzodiazepine receptor; concentration 9 μM,99%
same,% Inhibition,benzodiazepine receptor; concentration 28 μM,106%
same,% Inhibition,benzodiazepine receptor; concentration 93 μM,107%
C/C1=C\CC(C)(C)/C=C/C[C@@]2(C)Oc3c4c(c(O)c(O)c(=O)c3O)CO[C@H]4[C@@H]2CC1 [Compound B],Solubility,[1],"Methanol, ethyl acetate, chloroform, acetone"
same,IC50,benzodiazepine receptor,5 µM
same,% Inhibition,benzodiazepine receptor; concentration 18 nM,21%
same,% Inhibition,benzodiazepine receptor; concentration 53 nM,21%
same,% Inhibition,benzodiazepine receptor; concentration 177 nM,36%
same,% Inhibition,benzodiazepine receptor; concentration 530 nM,42%
same,% Inhibition,benzodiazepine receptor; concentration 2 μM,53%
same,% Inhibition,benzodiazepine receptor; concentration 5 μM,69%
same,% Inhibition,benzodiazepine receptor; concentration 18 μM,82%
same,% Inhibition,benzodiazepine receptor; concentration 53 μM,92%
same,% Inhibition,benzodiazepine receptor; concentration 177 μM,78%
C/C1=C\CC(C)(C)/C=C/C[C@@]2(C)Oc3c4c(cc(O)c(=O)c3O)CO[C@H]4[C@@H]2CC1 [Compound C],Solubility,[1],"Methanol, acetone, ethyl acetate"
same,IC50,benzodiazepine receptor,20 µM
same,% Inhibition,benzodiazepine receptor; concentration 80 nM,9%
same,% Inhibition,benzodiazepine receptor; concentration 240 nM,-3%
same,% Inhibition,benzodiazepine receptor; concentration 800 nM,9%
same,% Inhibition,benzodiazepine receptor; concentration 2 μM,12%
same,% Inhibition,benzodiazepine receptor; concentration 8 μM,35%
same,% Inhibition,benzodiazepine receptor; concentration 24 μM,54%
same,% Inhibition,benzodiazepine receptor; concentration 80 μM,77%
same,% Inhibition,benzodiazepine receptor; concentration 242 μM,88%
C/C1=C\CC(C)(C)/C=C/C[C@@]2(C)OC3=C(O)C(=O)[C@H]4CO[C@H]([C@@H]34)[C@@H]2CC1 [Compound D],IC50,benzodiazepine receptor,0.01 µM
same,% Inhibition,benzodiazepine receptor; concentration 5 nM,45%
same,% Inhibition,benzodiazepine receptor; concentration 10 nM,45%
same,% Inhibition,benzodiazepine receptor; concentration 50 nM,70%
same,% Inhibition,benzodiazepine receptor; concentration 100 nM,65%
same,% Inhibition,benzodiazepine receptor; concentration 500 nM,81%
same,% Inhibition,benzodiazepine receptor; concentration 1 μM,86%
same,% Inhibition,benzodiazepine receptor; concentration 5 μM,98%
same,% Inhibition,benzodiazepine receptor; concentration 10 μM,100%
same,% Inhibition,benzodiazepine receptor; concentration 50 μM,103%
same,% Inhibition,benzodiazepine receptor; concentration 100 μM,92%
C/C1=C\CC(C)(C)/C=C/C[C@@]2(C)Oc3c(O)c(O)cc4c3[C@@H](OC4)[C@@H]2CC1 [Compound E],Solubility,[1],"methanol, ethyl acetate"
same,IC50,benzodiazepine receptor,0.5 µM
same,% Inhibition,benzodiazepine receptor; concentration 4.8 × 10^-5 M,101%
same,% Inhibition,benzodiazepine receptor; concentration 4.8 × 10^-6 M,88%
same,% Inhibition,benzodiazepine receptor; concentration 4.8 × 10^-7 M,52%
same,% Inhibition,benzodiazepine receptor; concentration 4.8 × 10^-8 M,37%
same,% Inhibition,benzodiazepine receptor; concentration 4.8 × 10^-9 M,22%
same,% Inhibition,benzodiazepine receptor; concentration 9.5 × 10^-5 M,104%
same,% Inhibition,benzodiazepine receptor; concentration 9.5 × 10^-6 M,93%
same,% Inhibition,benzodiazepine receptor; concentration 9.5 × 10^-7 M,65%
same,% Inhibition,benzodiazepine receptor; concentration 9.5 × 10^-8 M,42%
same,% Inhibition,benzodiazepine receptor; concentration 9.5 × 10^-9 M,27%
C/C1=C\CC(C)(C)/C=C/C[C@@]2(C)OC3=C4C(=CC(=O)C3=O)CO[C@H]4[C@@H]2CC1 [Compound F],Solubility,[1],methanol
same,IC50,benzodiazepine receptor,3 µM
same,% Inhibition,benzodiazepine receptor; concentration 2.7 × 10^-4 M,94%
same,% Inhibition,benzodiazepine receptor; concentration 2.7 × 10^-5 M,77%
same,% Inhibition,benzodiazepine receptor; concentration 2.7 × 10^-6 M,48%
same,% Inhibition,benzodiazepine receptor; concentration 2.7 × 10^-7 M,33%
same,% Inhibition,benzodiazepine receptor; concentration 2.7 × 10^-8 M,24%
same,% Inhibition,benzodiazepine receptor; concentration 9.0 × 10^-5 M,89%
same,% Inhibition,benzodiazepine receptor; concentration 9.0 × 10^-6 M,65%
same,% Inhibition,benzodiazepine receptor; concentration 9.0 × 10^-7 M,41%
same,% Inhibition,benzodiazepine receptor; concentration 9.0 × 10^-8 M,27%
same,% Inhibition,benzodiazepine receptor; concentration 9.0 × 10^-9 M,15%
